Assays:
Human recombinant PKCε = target: T1, Human recombinant PKCε (Homo sapiens, UniProt Q02156); test: Protein Kinase Cε Assay; format: biochemical; details: 10 μM 33P-ATP
T1 construct: purchased Oxford Biomedical Research
T1 sequence (Q02156 1-737): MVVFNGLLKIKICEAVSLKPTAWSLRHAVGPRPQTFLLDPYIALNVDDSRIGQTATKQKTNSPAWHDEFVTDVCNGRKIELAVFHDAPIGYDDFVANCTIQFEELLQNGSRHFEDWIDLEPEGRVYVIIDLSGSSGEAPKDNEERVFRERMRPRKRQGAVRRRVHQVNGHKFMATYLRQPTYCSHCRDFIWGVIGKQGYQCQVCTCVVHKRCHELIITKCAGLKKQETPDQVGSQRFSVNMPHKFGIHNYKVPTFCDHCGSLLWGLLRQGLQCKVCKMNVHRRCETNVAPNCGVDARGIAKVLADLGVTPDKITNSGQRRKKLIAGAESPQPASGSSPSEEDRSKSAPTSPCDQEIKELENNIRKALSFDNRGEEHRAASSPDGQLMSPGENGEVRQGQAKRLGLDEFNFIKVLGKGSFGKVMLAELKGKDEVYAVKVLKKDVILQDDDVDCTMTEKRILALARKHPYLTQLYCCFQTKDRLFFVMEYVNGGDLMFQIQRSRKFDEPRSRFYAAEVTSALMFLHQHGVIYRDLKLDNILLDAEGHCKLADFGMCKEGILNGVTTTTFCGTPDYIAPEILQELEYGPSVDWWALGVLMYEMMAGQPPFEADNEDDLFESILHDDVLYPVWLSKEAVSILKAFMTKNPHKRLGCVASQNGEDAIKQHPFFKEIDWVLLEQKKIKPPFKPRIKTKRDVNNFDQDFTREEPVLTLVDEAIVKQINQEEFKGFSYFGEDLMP
Experimental: (§1) The compounds of the invention are tested for their activity on different PKC isoforms according to the following method. Assay is performed in a white with clear bottom 384-well microtiterplate with non-binding surface. The reaction mixture (25 μl) contains 1.5 μM of a tridecapeptide acceptor substrate that mimics the pseudo substrate sequence of PKC α with the Ala→Ser replacement, 10 μM ^33P-ATP, 10 mM Mg(NO3)2, 0.2 mM CaCl2, […] at a protein concentration varying from 25 to 400 ng/ml (depending on the isotype used), lipid vesicles (containing 30 mol % phosphatidylserine, 5 mol % DAG and 65 mol % phosphatidylcholine) at a final lipid concentration of 0.5 mM, in 20 mM Tris-HCl buffer pH 7.4+0.1% BSA. Incubation is performed for 60 min at room temperature.
Human recombinant PKCε is obtained from Oxford Biomedical Research and is used under the assay conditions as described under Section A.1 above.

Human recombinant PKCθ = Human recombinant PKCθ (Homo sapiens, UniProt Q04759); test: Protein Kinase Cθ Assay; format: biochemical; details: 10 μM 33P-ATP
Experimental: as §1
Human recombinant PKCθ is used under the assay conditions as described above.

Human recombinant PKCη = target: T2, Human recombinant PKCη (Homo sapiens, UniProt P24723); test: Protein Kinase Cη Assay; format: biochemical; details: 10 μM 33P-ATP
T2 construct: purchased PanVera
Experimental: as §1
Human recombinant PKCη is obtained from PanVera and is used under the assay conditions as described under Section A.1 above.

Human recombinant PKCδ = target: T3, Human recombinant PKCδ (Homo sapiens, UniProt Q05655); test: Protein Kinase Cδ Assay; format: biochemical; details: 10 μM 33P-ATP
T3 construct: purchased Oxford Biomedical Research
Experimental: as §1
Human recombinant PKCδ is obtained from Oxford Biomedical Research and is used under the assay conditions as described under Section A.1 above.

Human recombinant PKCβ1 = target: T4, Human recombinant PKCβ1 (Homo sapiens, UniProt P05771); test: Protein Kinase Cβ1 Assay; format: biochemical; details: human recombinant PKCβ1, 10 μM 33P-ATP
T4 construct: purchased Oxford Biomedical Research
Experimental: as §1
Human recombinant PKCβ1 is obtained from Oxford Biomedical Research and is used under the assay conditions as described under Section A.1 above.

[1] = tested on: Jurkat cells transfected with a human interleukin-2 promoter/reporter gene construct; test: CD28 Costimulation Assay; format: cell-based; details: IL-2 promoter luciferase reporter, 5.5 hours, read-out: IC50, inhibition of anti-T cell receptor/anti-CD28 and PMA/ionomycin stimulated Jurkat cells
Experimental: The assay is performed with Jurkat cells transfected with a human interleukin-2 promoter/reporter gene construct as described by Baumann G et al. in Transplant. Proc. 1992; 24:43-8, the β-galactosidase reporter gene being replaced by the luciferase gene (de Wet J., et al., Mol. Cell. Biol. 1987, 7(2), 725-737). Cells are stimulated by solid phase-coupled antibodies or phorbol myristate acetate (PMA) and the Ca^++ ionophore ionomycin as follows. For antibody-mediated stimulation Microlite TM1 microtiter plates (Dynatech) are coated with 3 μg/ml goat anti-mouse IgG Fc antibodies (Jackson) in 55 μl phosphate-buffered saline (PBS) per well for three hours at RT. Plates are blocked after removing the antibodies by incubation with 2% bovine serum albumin (BSA) in PBS (300 μl per well) for 2 hours at RT. […] After incubation for 5.5 hours at 37° C. in 5% CO2, the level of luciferase is determined by bioluminescence measurement. […] Luciferase activity is assessed with a bioluminescence reader (Labsystem, Helsinki, Finland) after automatic addition of 50 μl per well luciferase reaction buffer containing 20 mM Tricine, 1.07 mM (MgCO3)4Mg(OH)2×5H2O, 2.67 mM MgSO4, 0.1 mM EDTA, 33.3 mM DTT, 270 μM coenzyme A, 470 μM luciferin (Chemie Brunschwig AG), 530 μM ATP, pH 7.8. […] The inhibition obtained in the presence of a test compound is calculated as percent inhibition of the high control.

Human recombinant PKCα = target: T5, Human recombinant PKCα (Homo sapiens, UniProt P17252); test: Protein Kinase Cα Assay; format: biochemical; details: 10 μM 33P-ATP
T5 construct: purchased Oxford Biomedical Research
Experimental: as §1
Human recombinant PKCα is obtained from Oxford Biomedical Research and is used under the assay conditions as described under Section A.1 above.

[2] = tested on: spleen cells from CBA and BALB/c mice; test: Allogeneic Mixed Lymphocyte Reaction (MLR); format: cell-based; details: CBA and BALB/c mouse spleen cells, 3H-thymidine incorporation after four days, read-out: IC50, inhibition of proliferation in two-way MLR
Experimental: Briefly, spleen cells from CBA and BALB/c mice (1.6×10^5 cells from each strain per well in flat bottom tissue culture microtiter plates, 3.2×10^5 in total) are incubated in RPMI medium containing 10% FCS, 100 U/ml penicillin, 100 μg/ml streptomycin (Gibco BRL, Basel, Switzerland), 50 μM 2-mercaptoethanol (Fluka, Buchs, Switzerland) and serially diluted compounds. Seven three-fold dilution steps in duplicates per test compound are performed. After four days of incubation 1 μCi ^3H-thymidine is added. Cells are harvested after an additional five-hour incubation period, and incorporated ^3H-thymidine is determined according to standard procedures. Background values (low control) of the MLR are the proliferation of BALB/c cells alone. Low controls are subtracted from all values. High controls without any sample are taken as 100% proliferation.

T3 sequence (Q05655 whole entry): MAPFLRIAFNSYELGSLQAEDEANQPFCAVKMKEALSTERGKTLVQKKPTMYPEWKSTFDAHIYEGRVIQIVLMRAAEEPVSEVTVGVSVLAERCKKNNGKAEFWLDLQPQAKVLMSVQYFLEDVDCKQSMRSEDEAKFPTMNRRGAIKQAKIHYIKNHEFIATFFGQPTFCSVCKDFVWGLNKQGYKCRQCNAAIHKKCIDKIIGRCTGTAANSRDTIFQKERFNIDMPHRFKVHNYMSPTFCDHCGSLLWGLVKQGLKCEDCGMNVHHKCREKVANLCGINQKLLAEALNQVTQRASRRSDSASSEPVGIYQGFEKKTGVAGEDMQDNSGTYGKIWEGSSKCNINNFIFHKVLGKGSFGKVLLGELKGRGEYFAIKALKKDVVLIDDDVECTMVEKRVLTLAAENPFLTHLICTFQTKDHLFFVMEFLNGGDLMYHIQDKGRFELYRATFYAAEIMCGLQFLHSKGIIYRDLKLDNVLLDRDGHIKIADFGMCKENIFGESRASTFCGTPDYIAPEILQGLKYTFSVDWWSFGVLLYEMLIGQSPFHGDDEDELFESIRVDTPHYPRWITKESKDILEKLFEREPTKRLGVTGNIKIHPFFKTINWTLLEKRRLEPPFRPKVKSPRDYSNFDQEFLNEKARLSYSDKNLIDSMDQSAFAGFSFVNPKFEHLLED
Human recombinant PKCθ, sequence (Q04759 whole entry): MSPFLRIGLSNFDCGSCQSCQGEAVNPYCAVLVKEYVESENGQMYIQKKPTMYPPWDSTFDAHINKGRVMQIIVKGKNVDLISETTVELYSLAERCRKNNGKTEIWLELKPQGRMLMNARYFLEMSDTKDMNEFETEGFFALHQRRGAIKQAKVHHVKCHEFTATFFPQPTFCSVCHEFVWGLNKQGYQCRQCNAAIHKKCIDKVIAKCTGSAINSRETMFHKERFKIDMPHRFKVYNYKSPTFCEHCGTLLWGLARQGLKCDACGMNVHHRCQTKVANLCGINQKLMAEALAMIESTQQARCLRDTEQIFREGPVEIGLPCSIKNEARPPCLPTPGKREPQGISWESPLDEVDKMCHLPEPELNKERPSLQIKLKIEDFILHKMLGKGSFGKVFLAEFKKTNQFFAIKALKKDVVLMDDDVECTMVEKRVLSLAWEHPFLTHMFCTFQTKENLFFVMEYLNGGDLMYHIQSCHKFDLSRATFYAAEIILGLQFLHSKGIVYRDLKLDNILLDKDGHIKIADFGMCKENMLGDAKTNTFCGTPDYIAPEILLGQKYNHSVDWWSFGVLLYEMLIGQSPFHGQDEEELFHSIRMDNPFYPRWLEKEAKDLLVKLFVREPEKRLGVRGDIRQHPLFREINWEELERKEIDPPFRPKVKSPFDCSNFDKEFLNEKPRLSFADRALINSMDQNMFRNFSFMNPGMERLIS
T2 sequence (P24723 whole entry): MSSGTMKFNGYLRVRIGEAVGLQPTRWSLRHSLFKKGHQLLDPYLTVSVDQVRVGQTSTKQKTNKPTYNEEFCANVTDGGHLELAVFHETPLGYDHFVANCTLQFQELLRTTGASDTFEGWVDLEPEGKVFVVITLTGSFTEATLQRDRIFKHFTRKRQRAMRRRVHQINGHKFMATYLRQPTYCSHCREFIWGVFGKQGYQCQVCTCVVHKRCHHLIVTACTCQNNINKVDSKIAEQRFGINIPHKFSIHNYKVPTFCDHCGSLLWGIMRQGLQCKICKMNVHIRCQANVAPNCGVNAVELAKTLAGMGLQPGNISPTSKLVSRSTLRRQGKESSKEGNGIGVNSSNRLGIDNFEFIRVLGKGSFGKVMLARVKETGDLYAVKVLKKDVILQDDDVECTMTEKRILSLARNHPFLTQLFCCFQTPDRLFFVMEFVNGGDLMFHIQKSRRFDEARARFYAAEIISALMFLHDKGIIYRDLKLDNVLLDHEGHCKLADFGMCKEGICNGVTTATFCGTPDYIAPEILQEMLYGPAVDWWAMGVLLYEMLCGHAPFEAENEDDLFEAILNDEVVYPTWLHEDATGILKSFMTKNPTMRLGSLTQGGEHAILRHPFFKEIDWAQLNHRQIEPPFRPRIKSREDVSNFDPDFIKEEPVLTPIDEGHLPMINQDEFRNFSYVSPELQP
T4 sequence (P05771 whole entry): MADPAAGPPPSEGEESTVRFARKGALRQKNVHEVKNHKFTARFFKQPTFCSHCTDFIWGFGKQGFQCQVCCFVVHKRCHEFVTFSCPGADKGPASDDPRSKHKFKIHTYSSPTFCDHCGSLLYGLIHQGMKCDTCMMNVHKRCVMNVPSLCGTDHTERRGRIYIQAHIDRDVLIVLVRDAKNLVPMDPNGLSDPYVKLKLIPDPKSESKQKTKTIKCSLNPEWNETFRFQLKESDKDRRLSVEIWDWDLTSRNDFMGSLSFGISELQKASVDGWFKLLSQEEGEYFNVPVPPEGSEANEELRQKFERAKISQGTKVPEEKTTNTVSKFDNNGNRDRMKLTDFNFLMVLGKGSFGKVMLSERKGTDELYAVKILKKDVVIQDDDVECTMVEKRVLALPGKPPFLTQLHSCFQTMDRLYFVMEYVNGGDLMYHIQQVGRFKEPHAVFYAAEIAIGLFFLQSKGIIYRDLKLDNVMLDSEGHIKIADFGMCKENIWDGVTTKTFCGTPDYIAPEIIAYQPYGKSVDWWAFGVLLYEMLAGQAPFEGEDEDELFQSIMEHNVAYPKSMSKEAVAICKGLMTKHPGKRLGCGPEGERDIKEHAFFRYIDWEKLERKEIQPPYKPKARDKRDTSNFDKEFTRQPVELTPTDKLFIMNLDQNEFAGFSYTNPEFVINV

Structure (SMILES)	IC50 (Human recombinant PKCε)	IC50 (Human recombinant PKCθ)	IC50 (Human recombinant PKCη)	IC50 (Human recombinant PKCδ)	IC50 (Human recombinant PKCβ1)	IC50 [1]	IC50 (Human recombinant PKCα)	IC50 [2]
CN(C)Cc1ccc2c(C3=C(c4cn(C)c5ccccc45)C(=O)NC3=O)c(Cl)ccc2c1 [example 1, 3-(2-Chloro-6-dimethylaminomethyl-naphthalen-1-yl)-4-(1-methyl-1H-indol-3-yl)-pyrrole-2,5-dione]	17.6 nM	19.2 nM	–	–	–	–	–	–
Cc1cccc2c(C3=C(c4cccc5cc(CN)ccc45)C(=O)NC3=O)c[nH]c12 [example 3]	–	–	53.9 nM	–	–	–	–	–
CN(C)Cc1ccc2c(C3=C(c4c[nH]c5ccccc45)C(=O)NC3=O)c(Cl)ccc2c1 [example 4]	–	–	7.2 nM	9.4 nM	–	–	–	–
Cc1cccc2c(C3=C(c4c(Cl)ccc5cc(CN(C)C)ccc45)C(=O)NC3=O)c[nH]c12 [example 5]	–	–	–	4.5 nM	2.3 nM	11.5 nM	0.9 nM	183 nM

Continued, in another order:

IC50 (Human recombinant PKCε)	IC50 (Human recombinant PKCθ)	IC50 (Human recombinant PKCη)	IC50 (Human recombinant PKCδ)	IC50 (Human recombinant PKCβ1)	IC50 [1]	IC50 (Human recombinant PKCα)	Structure (SMILES)	IC50 [2]
2.3 nM	–	–	–	–	–	1.1 nM	CNCc1ccc2c(C3=C(c4c[nH]c5ccccc45)C(=O)NC3=O)c(Cl)ccc2c1 [example 6]	–
–	6.4 nM	–	–	2.8 nM	27.5 nM	–	CNCc1ccc2c(C3=C(c4c[nH]c5c(C)cccc45)C(=O)NC3=O)c(Cl)ccc2c1 [example 7]	528 nM

Reference: patent US7691861B2, “Indolymaleimide derivatives” (Novartis AG, priority 2004, dated 2010)
